According to ChEMBL document CHEMBL1157234, “Isoflavonoids with antiestrogenic activity from Millettia pachycarpa” (J Nat Prod, 2006):

The molecules below were run against T1, Estrogen receptor (Homo sapiens, UniProt P03372) (assay: Antiestrogenic activity at estrogen receptor alpha expressed in yeast cells assessed as inhibition of 17-beta-estradiol-induced beta-galactosidase activity by two hybrid assay).
T1 sequence (P03372 whole entry): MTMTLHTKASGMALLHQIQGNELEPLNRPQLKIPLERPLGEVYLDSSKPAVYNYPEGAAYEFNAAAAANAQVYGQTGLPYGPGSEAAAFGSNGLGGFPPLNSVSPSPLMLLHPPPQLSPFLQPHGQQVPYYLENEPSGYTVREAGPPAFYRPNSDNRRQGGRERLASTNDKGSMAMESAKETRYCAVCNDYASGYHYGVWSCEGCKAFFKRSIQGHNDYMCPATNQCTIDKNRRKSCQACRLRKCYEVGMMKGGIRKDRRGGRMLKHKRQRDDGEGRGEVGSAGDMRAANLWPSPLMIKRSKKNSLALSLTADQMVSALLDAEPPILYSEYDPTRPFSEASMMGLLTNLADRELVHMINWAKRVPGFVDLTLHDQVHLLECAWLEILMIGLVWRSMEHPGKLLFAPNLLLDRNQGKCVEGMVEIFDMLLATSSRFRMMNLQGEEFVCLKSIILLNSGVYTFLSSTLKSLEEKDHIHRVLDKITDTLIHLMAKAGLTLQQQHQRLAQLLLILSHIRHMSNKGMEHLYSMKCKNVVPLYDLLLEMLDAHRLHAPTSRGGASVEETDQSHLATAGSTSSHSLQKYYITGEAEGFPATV
Type: cell-based
`C=C(C)C(O)Cc1c(O)c(CC=C(C)C)c(O)c2c(=O)c(-c3ccc(O)c(O)c3)coc12` (racemic) was tested, and the IC50 was 18 µM. Molecule `CC(C)=CCc1c2c(c3occ(-c4ccc(O)c(O)c4)c(=O)c3c1O)CC(C(C)(C)O)O2` (racemic) [(+/-)-FUROWANIN B] has an IC50 of 13 µM. With `C=C(C)C(O)Cc1c(O)c(CC=C(C)C)c2occ(-c3ccc(O)c(O)c3)c(=O)c2c1O` (racemic) [MILLEWANIN G] the IC50 was 29 µM.
